According to patent US7201899B2, “Materials and methods for management of hyperacute rejection in human xenotransplantation” (BresaGen Limited, priority 1994, dated 2007):

What was measured:
pig RBC = assay: Hemagglutination of pig RBC by human serum: sugar inhibition; format: cell-based; settings: for Inhibitory Concentration: inhibition of pig RBC hemagglutination by pooled human AB serum; for concentration range inhibiting agglutination (in words): pig RBC agglutination by human serum
Protocol: The methods used to investigate the hemagglutination of pig red blood cells (RBC's) by human serum was adapted from the methods described by Galili, J. Exp. Med. 160: 1579–81 (1984) and Severson, Immunol. 96: 785–789 (1966).
A. Media/Solution Preparation • 1. Human Serum Albumin (HSA) (CSL, Melbourne, Australia) (5 mg/ml) was dissolved in PBS, filter sterilized, and stored at 4° C. • 2. Preparation of sugars: • 1 M stock solutions of sugar were prepared by dissolving the amount indicated in 100 ml of PBS. Sodium azide was added (0.02%) and solutions stored at 4° C.
B. Preparation of Pig RBC'S • 1. Heparinised pig blood (Animal Resources, Clayton, Australia) is centrifuged at 800 RPM for 10 min to pellet the RBC. • 2. The RBC pellet is washed by resuspension in PBS (10 ml) and recentrifugation (repeated 3 times). After the final wash, the RBC pellet is resuspended in 10 ml PBS. • 3. A 0.5% solution of RBC's is prepared by adding 50 ul RBC solution (from step 2, above) to 10 ml PBS containing 0.5 g/100 ml of HSA.
C. Preparation of 96-well Microtitre Plates (Titretek. USA) • 1. Add 25 ul of PBS to each well. • 2. Add 25 ul of pooled human AB serum (CSL, Melbourne, Australia) to column 1 and serially dilute by removing 25 ul from column 1 and adding to column 2, then repeating by sequentially removing and adding 25 ul from and to each well across the plate, finally discarding 25 μl from column 11 and adding no serum to column 12. • 3. Add 25 ul of sugar solution to each row in decreasing concentrations down rows. No sugar solution is added to the final row. • 4. Incubate at 4° C. overnight and then at 37° C. for 30 min. • 5. Add 50 ul of 0.5% pig RBC to each well; vortex and incubate at room temperature for 2 hours. Determine agglutination visually. II. Results

PK-1 and PAE's cells = assay: Antibody staining and FACS analysis of porcine cells; format: binding; settings: for inhibition of anti-GAL IgM and/or IgG staining of porcine cells by sugar: anti-GAL antibodies pre-incubated with sugar (0.1 M) at 37° C. for 30 min
Protocol: C. Antibody Staining and FACS Analysis • 1) Add 2 ml TED to a 75 cm^2 culture flask containing PK-1 or PAE'S, and incubate at room temperature for 10 min. • 2) Add RPMI plus 10% FCS (5 ml) to neutralize trypsin. • 3) Pellet cells by centrifugation (700 g, 5 min, • 4) Wash cells by resuspension and centrifugation in Hanks Buffer (×2). • 5) Pellet cells by centrifugation (700 g, 5 min, 4° C.). • 6) Resuspend cell pellet in Hanks buffer containing purified anti-GAL antibodies, GAL-depleted serum or GAL-depleted IgG and incubate at 4° C. for 60 min. All antibodies were used undiluted, or diluted 1:2 or 1:4 in Hanks buffer. • 7) Add 1 ml of Hanks Buffer, pellet cells by centrifugation and aspirate off supernatant. • 8) Resuspend pellet in FITC-labelled sheep-anti-human IgG Fab2 or IgM Fab2 (Silenus, Hawthorn, Australia) diluted 1:80 in Hanks buffer. • 9) Incubate for 30 min. at 4° C. • 10) Wash three times with Hanks buffer; resuspend pellet from final wash in 0.5 ml Hanks buffer. • 11) Analyze stained samples using a FACScan II (Becton Dickinson) according to the manufacturer's instructions.
The specificity of the anti-GAL antibody binding to porcine cells was determined by examining the ability of sugars of various structures to inhibit antibody binding. In these competition studies the anti-GAL antibodies were pre-incubated with sugar (0.1 M) at 37° C. for 30 min before adding to the cells.

[1] = test system: pig kidney, heart and liver sections; assay: Immunostaining of pig tissues with anti-GAL antibodies; format: binding; settings: pig renal cortex sections, proximal tubule brush borders; sugar 0.1 M
Protocol: Pig kidney was fixed in formalin and dehydrated before embedding in Paraplast. Pig heart and liver were fixed in paraformaldehyde-lysine-periodate fixative and snap frozen in O.C.T. embedding compound (10.24% w/w polyvinyl alcohol, 4.26% w/w polyethylene glycol, 85.50% w/w nonreactive ingredients; Tissue Tek®, Miles, Inc., Elkhart, Ind., USA). Four μm-thick sections of pig heart and liver and 2 μm-thick sections of kidney were incubated with purified anti-GAL antibodies (undiluted, 1:2 and 1:4) for 60 min. and then incubated with a fluorescein isothiocyanate (FITC)-conjugated sheep anti-human immunoglobulin F(ab′) fragment. (Silenus Laboratories, Hawthorn, Australia) (1:100) for 30 min. or a peroxidase-conjugated rabbit anti-human IgG (Dakopatts, Glostrup, Denmark) (1:50) for 60 min. Control sections were analyzed for autofluorescence, with the secondary antibody alone, or with the anti-GAL-depleted IgG or normal pig serum as the primary antibody. […] The specificity of the anti-GAL antibodies was tested by pre-incubating sections of pig renal cortex with a variety of sugars, including melibiose, lactose, sucrose and glucose at 0.1 M.

Structure (SMILES)	Inhibitory Concentration (pig RBC)	concentration range inhibiting agglutination (in words) (pig RBC)	inhibition of anti-GAL IgM and/or IgG staining of porcine cells by sugar (PK-1 and PAE's cells)	decrease of anti-GAL antibody staining of PAE's (FIG. 1) (PK-1 and PAE's cells; anti-GAL antibody pre-incubated with sugar, versus anti-GAL antibody alone)	inhibition of anti-GAL antibody binding to pig tissue by sugar [1]
O=C[C@H](O)[C@@H](O)[C@@H](O)[C@H](O)CO [Galactose, D(+)galactose]	0.002 M	μM to mM range	inhibited	approximately 10 fold less	–
OC[C@H]1O[C@H](OC[C@H]2O[C@H](OC[C@H]3O[C@H](O[C@]4(CO)O[C@H](CO)[C@@H](O)[C@@H]4O)[C@H](O)[C@@H](O)[C@@H]3O)[C@H](O)[C@@H](O)[C@H]2O)[C@H](O)[C@@H](O)[C@H]1O [Stachyose, α-D-gal-[1->6]-α-D-Glc-[1->2]-β-D-Fru]	0.002 M	μM to mM range	inhibited	–	–
OC[C@H]1O[C@@](CO)(O[C@H]2O[C@H](CO)[C@@H](O)[C@H](O)[C@H]2O)[C@@H](O)[C@@H]1O [Sucrose, α-D-Glucopyranosyl β-D-fructofuranoside]	>10^−1M	only inhibitory when very high concentrations were used	–	–	not inhibited
